# Molecular target: T1, CFTR (Homo sapiens, UniProt P13569, DEL508-508)
# T1 construct: Primary CF airway epithelial cells were obtained from the UNC Cystic Fibrosis Tissue Procurement and Cell Culture Core; host or cells: primary CF airway epithelial cells
# Experiment: Equivalent current assay in Primary CF airway epithelial cells (NAUC)
# Type: cell-based
# Conditions: 24 h, normalized to VX809 (3 μM) positive control; for Nauc @ 3 μM: 3 μM test compound; for Nauc @ 10 μM: 10 μM test compound
# Procedure, shortened: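 NAUC is the area under the curve from forskolin (10 μM) plus VX770 (1 μM) addition to CFTR-172 (20 μM) block, after benzamil (5 μM). It is corrected for vehicle and scaled to 3 μM VX809 as 1.0 and DMSO as 0.0. Cells were exposed for 24 h to compounds with VX809; medians of ≥4 replicates were fitted sigmoidally.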
# T1 sequence (P13569 with tags, fused parts or gaps DEL508-508): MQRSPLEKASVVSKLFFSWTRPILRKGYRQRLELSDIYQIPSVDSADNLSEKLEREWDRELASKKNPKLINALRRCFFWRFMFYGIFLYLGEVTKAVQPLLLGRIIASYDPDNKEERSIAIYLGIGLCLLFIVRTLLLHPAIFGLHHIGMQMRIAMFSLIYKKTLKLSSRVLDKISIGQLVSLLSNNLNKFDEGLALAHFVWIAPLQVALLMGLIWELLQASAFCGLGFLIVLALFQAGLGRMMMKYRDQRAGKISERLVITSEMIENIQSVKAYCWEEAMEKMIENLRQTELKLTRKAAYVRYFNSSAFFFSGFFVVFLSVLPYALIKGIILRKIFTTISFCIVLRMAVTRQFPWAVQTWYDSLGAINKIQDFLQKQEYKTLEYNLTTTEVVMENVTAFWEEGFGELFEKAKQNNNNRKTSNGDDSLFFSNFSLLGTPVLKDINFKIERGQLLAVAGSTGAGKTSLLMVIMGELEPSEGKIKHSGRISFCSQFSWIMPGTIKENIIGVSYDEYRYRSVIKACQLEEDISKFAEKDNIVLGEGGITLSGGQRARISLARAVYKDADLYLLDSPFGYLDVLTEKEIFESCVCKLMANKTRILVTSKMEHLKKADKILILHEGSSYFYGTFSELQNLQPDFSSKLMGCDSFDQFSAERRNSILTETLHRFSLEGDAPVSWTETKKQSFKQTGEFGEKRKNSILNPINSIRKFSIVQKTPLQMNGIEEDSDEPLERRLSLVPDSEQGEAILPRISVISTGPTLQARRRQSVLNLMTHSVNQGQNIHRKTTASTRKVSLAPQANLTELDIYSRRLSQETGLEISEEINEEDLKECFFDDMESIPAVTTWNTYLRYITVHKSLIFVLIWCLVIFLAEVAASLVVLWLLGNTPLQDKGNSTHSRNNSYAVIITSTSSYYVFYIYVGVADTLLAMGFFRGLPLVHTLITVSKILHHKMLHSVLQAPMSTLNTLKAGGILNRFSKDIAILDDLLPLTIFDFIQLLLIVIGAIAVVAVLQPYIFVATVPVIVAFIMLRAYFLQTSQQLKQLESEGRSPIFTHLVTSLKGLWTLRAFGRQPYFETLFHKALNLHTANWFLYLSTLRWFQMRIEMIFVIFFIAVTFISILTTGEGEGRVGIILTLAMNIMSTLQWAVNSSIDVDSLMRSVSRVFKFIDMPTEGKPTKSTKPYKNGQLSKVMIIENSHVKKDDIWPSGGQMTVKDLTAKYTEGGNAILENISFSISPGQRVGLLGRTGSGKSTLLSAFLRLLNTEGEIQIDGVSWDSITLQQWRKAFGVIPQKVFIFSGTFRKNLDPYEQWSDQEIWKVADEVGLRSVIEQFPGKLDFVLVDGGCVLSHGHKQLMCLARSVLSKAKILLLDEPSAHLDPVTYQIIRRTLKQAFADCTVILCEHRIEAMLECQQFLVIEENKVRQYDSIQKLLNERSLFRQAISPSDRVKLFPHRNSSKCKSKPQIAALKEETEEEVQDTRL
smiles,measurement,value
COc1c(Cl)cc(N2C(=O)C3C4CC(C(F)(F)F)CN4C4(C(=O)Nc5c(Cl)cc(Cl)cc54)C3C2=O)cc1Cl (stereo not shown) [Example 213],Nauc @ 3 μM,++ (NAUC “++” refers to an observed NAUC 170-140% of positive control)
same,Nauc @ 10 μM,+++ (NAUC “+++” refers to an observed NAUC >170% of positive control)
[2H]C([2H])([2H])C1(C([2H])([2H])[2H])CC2C3C(=O)N(c4cc(Cl)c(OC)c(Cl)c4)C(=O)C3C3(C(=O)Nc4c(Cl)cc(Cl)cc43)N2C1 (stereo not shown) [Example 214],Nauc @ 3 μM,+++ (NAUC “+++” refers to an observed NAUC >170% of positive control)
same,Nauc @ 10 μM,+++ (NAUC “+++” refers to an observed NAUC >170% of positive control)
O=C1C2C3CC(C(F)(F)F)CN3C3(C(=O)Nc4c(Cl)cc(Cl)cc43)C2C(=O)N1c1cc(Cl)cc(Cl)c1 (stereo not shown) [Example 215],Nauc @ 3 μM,+++ (NAUC “+++” refers to an observed NAUC >170% of positive control)
same,Nauc @ 10 μM,++ (NAUC “++” refers to an observed NAUC 170-140% of positive control)
O=C1C2C3CCCN3C3(C(=O)Nc4c(Cl)cc(Cl)cc43)C2C(=O)N1c1nccs1 (stereo not shown) [Example 216],Nauc @ 3 μM,++ (NAUC “++” refers to an observed NAUC 170-140% of positive control)
same,Nauc @ 10 μM,+ (NAUC “+” refers to an observed NAUC <140% of positive control)
O=C1C2C(Cc3c(F)cccc3Cl)NC3(C(=O)Nc4c(Cl)cc(Cl)cc43)C2C(=O)N1c1cc(Cl)cc(Cl)c1 (stereo not shown) [Example 217],Nauc @ 3 μM,++ (NAUC “++” refers to an observed NAUC 170-140% of positive control)
same,Nauc @ 10 μM,++ (NAUC “++” refers to an observed NAUC 170-140% of positive control)
O=C1C2C(Cc3ccccc3OC(F)(F)F)NC3(C(=O)Nc4c(Cl)cc(Cl)cc43)C2C(=O)N1c1cc(Cl)cc(Cl)c1 (stereo not shown) [Example 222],Nauc @ 3 μM,+++ (NAUC “+++” refers to an observed NAUC >170% of positive control)
same,Nauc @ 10 μM,++ (NAUC “++” refers to an observed NAUC 170-140% of positive control)
C[C@]1(O)CC2C3C(=O)N(c4cc(Cl)cc(Cl)n4)C(=O)C3C3(C(=O)Nc4c(Cl)cc(Cl)cc43)N2C1 (stereo partly shown) [Example 223],Nauc @ 3 μM,+ (NAUC “+” refers to an observed NAUC <140% of positive control)
same,Nauc @ 10 μM,+++ (NAUC “+++” refers to an observed NAUC >170% of positive control)
O=C1C2C3CCCN3C3(C(=O)Nc4c(Cl)cc(Cl)cc43)C2C(=O)N1c1cc(Cl)c(OC(F)F)c(Cl)c1 (stereo not shown) [Example 224],Nauc @ 3 μM,+++ (NAUC “+++” refers to an observed NAUC >170% of positive control)
same,Nauc @ 10 μM,+++ (NAUC “+++” refers to an observed NAUC >170% of positive control)
CC1(C)CC2C3C(=O)N(c4cc(Cl)c(OC(F)F)c(Cl)c4)C(=O)C3C3(C(=O)Nc4c(Cl)cc(Cl)cc43)N2C1 (stereo not shown) [Example 225],Nauc @ 3 μM,+++ (NAUC “+++” refers to an observed NAUC >170% of positive control)
same,Nauc @ 10 μM,+++ (NAUC “+++” refers to an observed NAUC >170% of positive control)
C[C@]1(O)CC2C3C(=O)N(c4cc(Cl)c(OC(F)F)c(Cl)c4)C(=O)C3C3(C(=O)Nc4c(Cl)cc(Cl)cc43)N2C1 (stereo partly shown) [Example 226],Nauc @ 3 μM,++ (NAUC “++” refers to an observed NAUC 170-140% of positive control)
same,Nauc @ 10 μM,++ (NAUC “++” refers to an observed NAUC 170-140% of positive control)
O=C1C2C3CCCN3C3(C(=O)Nc4c(Cl)cc(Cl)cc43)C2C(=O)N1c1cccc(F)n1 (stereo not shown) [Example 227],Nauc @ 3 μM,+ (NAUC “+” refers to an observed NAUC <140% of positive control)
same,Nauc @ 10 μM,++ (NAUC “++” refers to an observed NAUC 170-140% of positive control)
O=C1C2C(Cc3c(Cl)cccc3Cl)NC3(C(=O)Nc4c(Cl)cc(Cl)cc43)C2C(=O)N1c1cc(Cl)cc(Cl)c1 (stereo not shown) [Example 228],Nauc @ 3 μM,+++ (NAUC “+++” refers to an observed NAUC >170% of positive control)
same,Nauc @ 10 μM,++ (NAUC “++” refers to an observed NAUC 170-140% of positive control)
O=C1C2C3CCCN3C3(C(=O)Nc4c(Cl)cc(Cl)cc43)C2C(=O)N1c1ncc(Cl)s1 (stereo not shown) [Example 229],Nauc @ 3 μM,+ (NAUC “+” refers to an observed NAUC <140% of positive control)
same,Nauc @ 10 μM,++ (NAUC “++” refers to an observed NAUC 170-140% of positive control)
C[C@]1(F)CC2C3C(=O)N(c4cc(Cl)cc(Cl)n4)C(=O)C3C3(C(=O)Nc4c(Cl)cc(Cl)cc43)N2C1 (stereo partly shown) [Example 231],Nauc @ 3 μM,+ (NAUC “+” refers to an observed NAUC <140% of positive control)
same,Nauc @ 10 μM,+++ (NAUC “+++” refers to an observed NAUC >170% of positive control)
C[C@]1(O)CC2C3C(=O)N(c4cccc(F)n4)C(=O)C3C3(C(=O)Nc4c(Cl)cc(Cl)cc43)N2C1 (stereo partly shown) [Example 233],Nauc @ 3 μM,+++ (NAUC “+++” refers to an observed NAUC >170% of positive control)
same,Nauc @ 10 μM,++ (NAUC “++” refers to an observed NAUC 170-140% of positive control)
C[C@]1(O)CC2C3C(=O)N(c4ccon4)C(=O)C3C3(C(=O)Nc4c(Cl)cc(Cl)cc43)N2C1 (stereo partly shown) [Example 234],Nauc @ 3 μM,+ (NAUC “+” refers to an observed NAUC <140% of positive control)
same,Nauc @ 10 μM,++ (NAUC “++” refers to an observed NAUC 170-140% of positive control)
CC(C)C1NC2(C(=O)Nc3c(Cl)cc(Cl)cc32)C2C(=O)N(c3cc(Cl)cc(Cl)c3)C(=O)C12 (stereo not shown) [Example 235],Nauc @ 3 μM,+++ (NAUC “+++” refers to an observed NAUC >170% of positive control)
same,Nauc @ 10 μM,+++ (NAUC “+++” refers to an observed NAUC >170% of positive control)
O=C1C2C(Cc3ccccc3Cl)NC3(C(=O)Nc4c(Cl)cc(Cl)cc43)C2C(=O)N1c1cc(Cl)cc(Cl)c1 (stereo not shown) [Example 236],Nauc @ 3 μM,+++ (NAUC “+++” refers to an observed NAUC >170% of positive control)
same,Nauc @ 10 μM,++ (NAUC “++” refers to an observed NAUC 170-140% of positive control)
Cc1cc(CC2NC3(C(=O)Nc4c(Cl)cc(Cl)cc43)C3C(=O)N(c4cc(Cl)cc(Cl)c4)C(=O)C23)no1 (stereo not shown) [Example 237],Nauc @ 3 μM,++ (NAUC “++” refers to an observed NAUC 170-140% of positive control)
same,Nauc @ 10 μM,+ (NAUC “+” refers to an observed NAUC <140% of positive control)
Cc1cccc(CC2NC3(C(=O)Nc4c(Cl)cc(Cl)cc43)C3C(=O)N(c4cc(Cl)cc(Cl)c4)C(=O)C23)n1 (stereo not shown) [Example 238],Nauc @ 3 μM,+ (NAUC “+” refers to an observed NAUC <140% of positive control)
same,Nauc @ 10 μM,++ (NAUC “++” refers to an observed NAUC 170-140% of positive control)
O=C1C2C3C[C@H](O)CN3C3(C(=O)Nc4c(Cl)cc(Cl)cc43)C2C(=O)N1c1cc(Cl)c(OC(F)F)c(Cl)c1 (stereo partly shown) [Example 244],Nauc @ 3 μM,++ (NAUC “++” refers to an observed NAUC 170-140% of positive control)
same,Nauc @ 10 μM,++ (NAUC “++” refers to an observed NAUC 170-140% of positive control)
COc1c(Cl)cc(N2C(=O)C3C4C[C@H](C(F)(F)F)CN4C4(C(=O)Nc5c(Cl)cc(Cl)cc54)C3C2=O)cc1Cl (stereo partly shown) [Example 245],Nauc @ 3 μM,+++ (NAUC “+++” refers to an observed NAUC >170% of positive control)
same,Nauc @ 10 μM,+++ (NAUC “+++” refers to an observed NAUC >170% of positive control)
O=C1C2C(Cc3ccccc3Cl)NC3(C(=O)Nc4c(Cl)cc(Cl)cc43)C2C(=O)N1c1cc(Cl)cc(Cl)c1 (stereo not shown) [Example 246],Nauc @ 3 μM,+++ (NAUC “+++” refers to an observed NAUC >170% of positive control)
same,Nauc @ 10 μM,+++ (NAUC “+++” refers to an observed NAUC >170% of positive control)

# Source: US10072017B2, “Compounds and methods for the treatment of cystic fibrosis” (Flatley Discovery Lab, LLC, priority 2015, dated 2018)
